In a melting point compilation (Tetko et al.; mined from patent text by program, amines drawn as free bases though some values may be those of a salt) one finds melting point data, which are given here for 89 compounds.

The structures appear in SMILES notation.

For orientation: melting point means the temperature, or range, at which the solid turns liquid.

`COc1ccc(C(=O)c2c(C)cc(NC(C)(C)C)nc2NC(C)(C)C)cc1` yielded a melting point of 127 to 129 °C.

In turn, `COC(=O)c1c(Cl)nc2cc3c(cc2c1CCl)OCCO3` had a melting point of 130 to 132 °C.

For the compound `CC1(C)SC2C(NC(c3ccccc3)(c3ccccc3)c3ccccc3)C(=O)N2C1c1nnn[nH]1` (centres undefined), the melting point was 133 to 136 °C.

Compound `O=c1c(Cc2ccncc2)c(-c2ccc(Cl)cc2)[nH]c2c(Br)cc(Br)cc12` displayed a melting point of 198 to 200 °C.

The compound `COCc1c(-c2nnc(N)o2)ncc2[nH]c3ccc(OCc4ccccc4)cc3c12` registered a melting point of 290 to 293 °C.

For the compound `O=S(=O)(Nc1ccc(Cl)nc1I)c1ccc2ncccc2c1`, the melting point is above 250 °C.

Compound `Nc1nc(Cl)nc2ccccc12` gave a melting point of 232 °C.

`COC(=O)C1CCC2C3CCC4CC(O)C(O)CC4(C)C3C(NC(=O)OCC(Cl)(Cl)Cl)CC12C` (centres undefined) returned a melting point of 228 to 230 °C.

Regarding `Cc1cc(O)c(Cc2ccc(C(C)C)cc2)c(C)c1NC(=O)CC(C)(C)C`, the melting point lay in the range of 202 to 203 °C.

For `CN1CC(CCN2CCN(c3ccc([N+](=O)[O-])cc3)CC2)OC1=O` (centres undefined), the melting point was in the range of 155 to 156 °C.

Compound `ON=C(c1ccccc1)c1nsc2nc3ccccc3n12` gave a melting point of 247 °C.

As to `O=C(O)CCn1nnnc1-c1ccc2c(c1)S(=O)(=O)c1ccccc1C2=O`, the melting point fell in the range of 143 to 145 °C.

Take `Cc1cc(C(=O)O)c(S(N)(=O)=O)o1`: the melting point came out at 191 °C.

Compound `Cc1cc(Cl)nc(Cl)c1N` registered a melting point of 83 to 85 °C.

For `C[Si](C)(C)CCCOc1ccc(C(=O)O)c(O)c1`, the melting point was 187 °C.

`CC(C)CO/N=C(\C(=O)O)c1csc(NC(c2ccccc2)(c2ccccc2)c2ccccc2)n1` had a melting point of 168 to 169 °C.

As for `CN1CCC23c4c5ccc(O)c4OC2C(=O)CCC3(F)C1C5` (centres undefined), the melting point is 215 to 217 °C.

In the case of `CC(C)CN1C(=O)COc2cc(F)c([N+](=O)[O-])cc21`, the melting point lay in the range of 108 to 110 °C.

Consider `COC(=O)c1ccc(NC(=O)CNc2ccccc2F)cc1`, for which the melting point is 169 to 171 °C.

In the case of `CCCCCCCCCCNC(=O)c1cc(NCCC(=O)O)c(CCC(=O)O)c(C(=O)NCCCCCCCCCC)c1`, the melting point was in the range of 139 to 141 °C.

`CC(=O)OC1CSC(Oc2ccncc2)C(OC(C)=O)C1OC(C)=O` (centres undefined) returned a melting point of 152 to 158 °C.

Compound `COC1CCC(O)C(COS(=O)(=O)c2ccc(C)cc2)O1` (centres undefined) displayed a melting point of 100 to 102 °C.

With `CCN1C(=O)C(C)=C2C[C@@]3(C)C(=C[C@@H](OC)[C@H](O)[C@@H]3C)C=C21`, the melting point is 151 to 154 °C.

As to `CNC(=O)Oc1ccc2c(c1)CCN2`, the melting point was in the range of 109 to 112 °C.

Compound `CCC(=O)Oc1ccc(N)cc1C(=O)O` registered a melting point of 213 to 220 °C.

`COc1nc(N)nc(OC(F)(F)F)n1` returned a melting point of 69 to 91 °C.

`CCC(CC)Nc1c(NCc2ccc(Cl)cc2Cl)c(=O)c1=O`: the melting point fell in the range of 210 to 211 °C.

In the case of `O=C1c2ccccc2CSc2ccc(Br)cc21`, the melting point fell in the range of 151 to 152 °C.

Take `COc1cc(CCCC2SC(=O)NC2=O)ccc1OCc1coc(CCc2ccccc2)n1` (centres undefined): the melting point lay within 126 to 127 °C.

As to `CCN(CC)c1ccc(C2(c3ccc(N(C)C)cc3N(C)C)OC(=O)c3c(Cl)c(Cl)c(Cl)c(Cl)c32)c(C)c1` (centres undefined), the melting point lay within 236 to 238 °C.

`CCOC(=O)c1cc(-c2ccncc2)[nH]c1N` showed a melting point of 193 to 195 °C.

`Cc1ccc(C#Cc2ccc3c(c2)C(C)(C)CCC3(C)C)cc1` showed a melting point of 99 °C.

Compound `O=C(O)COc1ccc(-c2c(Cl)c(CN3C(=O)CCC3=O)nc3sc4c(c23)CCS(=O)C4)cc1` (centres undefined) registered a melting point of 205 to 206 °C.

Compound `Oc1cnc2cccc(Cl)c2n1` returned a melting point above 250 °C.

Turning to `CCOC(=O)C(C(=O)CCC(C)C)C1c2nccnc2C(=O)N1c1ccc2ccc(Cl)nc2n1` (centres undefined), the melting point was 136 °C.

Compound `O=C(O)COc1cccc2c1Cc1sc(SC(c3ccccc3)c3ccccc3)nc1-2` returned a melting point of 224 to 225 °C.

As to `Cc1ccc2[nH]c(C)c(C(=O)c3ccc(Cl)c(S(N)(=O)=O)c3)c2c1`, the melting point lay in the range of 248 to 250 °C.

On to `Cc1nc2c(N)nc3cc(OCc4ccccc4)ccc3c2n1CC(C)C`, for which the melting point came out at 172 °C.

For `CC(C)(C)c1cc(C#N)c(O)c(Br)c1Cl`, the melting point was 105 to 107 °C.

For `Nc1cc(C(=O)N2CCC2)cc(C(F)(F)F)c1`, the melting point was found to be 154 °C.

The compound `COc1ccc2c(c1)COc1ccc(OCc3ccc4ccc(Cl)cc4n3)cc1C2SCCC(=O)O` (centres undefined) returned a melting point of 177 to 179 °C.

Compound `CCCc1nc2c(N)nc3cc(OCc4ccoc4)ccc3c2s1` returned a melting point of 170 to 171 °C.

Compound `CCCc1nc(Cl)cc(NC)n1` came in with a melting point of 30 to 40 °C.

As for `COc1c(Oc2ccccc2C)cccc1C(N)C(=O)O` (centres undefined), the melting point fell in the range of 169 to 170 °C.

Consider `Brc1cc(Br)cc(Cc2cc(Br)cc(Br)c2)c1`, for which the melting point was 196 °C.

With `C(#CCOCC#CCCn1cnc2cnc3ccccc3c21)CCn1cnc2cnc3ccccc3c21`, the melting point is 124 to 126 °C.

Consider `Clc1nc(C(c2ccccc2)(c2ccccc2)n2ccnc2)nc(Cl)c1Cl`, for which the melting point lay in the range of 142 to 146 °C.

The compound `CON(C)C(=O)Nc1cc(C(C)(C)C)on1` had a melting point of 106 to 107 °C.

Consider `NC(=O)c1cn(C(CO)COc2ccccc2)cn1` (centres undefined), for which the melting point fell in the range of 148 to 150 °C.

As for `CCCCC(=O)N1CCC(c2nc(-c3ccc(-c4ccccc4)cc3)c[nH]2)CC1`, the melting point fell in the range of 215 to 216 °C.

For the compound `CC(C)CC(O)c1cccc(NC(=O)OCc2ccccc2)c1` (centres undefined), the melting point was in the range of 73 to 77 °C.

In turn, `Cc1cc2oc(C(=O)O)cc(=O)c2c2c1-c1ccccc1C(C)(C)O2` had a melting point of 231 to 232 °C.

As for `CCC(C(C)=CC(CNC(=O)c1nc[nH]c1C)=NO)[N+](=O)[O-]` (centres undefined), the melting point lay in the range of 133 to 136 °C.

`N#Cc1cccc2c1CC(=O)c1ccccc1S2` had a melting point of 165 to 167 °C.

`Cc1cccc(CN(CCC(=O)O)c2nc(N)nc(Cl)n2)c1`: the melting point lay within 168 to 170 °C.

For the compound `COc1ccc(CCc2ccncc2NC(=O)c2ccccc2)cc1OC1CCCC1`, the melting point is 50 to 51 °C.

With `Cc1ccc(C2=C(c3ccc(S(C)(=O)=O)cc3)CCC2)cc1`, the melting point is 118 °C.

Consider `COC(=O)C(Oc1ccc(C23CC4CC(CC(C4)C2)C3)cc1)c1ccc(Oc2ccc(Cl)cc2)cc1` (centres undefined), for which the melting point lay in the range of 148 to 150 °C.

Regarding `CCOC(=O)CC1NCCN(CCc2c[nH]c3ccc(Cl)cc23)C1=O` (centres undefined), the melting point is 136 °C.

For the compound `CCCCCCCCCCCCNc1nc(NCC(O)C2CC(C)(C)NC(C)(C)C2)nc(NCC(O)C2CC(C)(C)NC(C)(C)C2)n1` (centres undefined), the melting point is 107 to 109 °C.

Turning to `CC(=O)Oc1cccc(C=C2CCCc3cc(C)cnc32)c1`, the melting point was 66 to 68 °C.

In turn, `Cc1c(C(N)=O)oc2nn(Cc3ccccc3)c(C)c12` showed a melting point of 228 to 230 °C.

As to `O=[N+]([O-])c1ccc(Cc2nc(-c3ccncc3)cs2)cc1`, the melting point fell in the range of 140 to 142 °C.

The compound `CCOC(=O)CC(=O)CC(O)/C=C/c1c(-c2ccccc2)ccnc1C` (centres undefined) had a melting point of 83 to 84 °C.

Regarding `O=C(c1ccc(F)cc1)C1CCN(C(=O)Cc2ccc(OCc3ccccc3)cc2OCc2ccccc2)CC1`, the melting point was 158 to 159 °C.

As to `NNc1nc(C(F)(F)F)c(Cl)s1`, the melting point was in the range of 136 to 137 °C.

The compound `CCOC(=O)CCCCn1c(=O)[nH]c2ccc(OCOCCOC)cc2c1=O` had a melting point of 105 to 107 °C.

With `CCOC(=O)C1=C(C)NC(C)=C(C(=O)OCCN2CCN(C(c3ccc(C)cc3)c3ccc(C)cc3)CC2)C1c1cccc(OC)c1` (centres undefined), the melting point is 75 to 78 °C.

In the case of `CS(=O)(=O)CCCCC(c1c(F)cccc1F)S(=O)(=O)c1ccc(Cl)cc1` (centres undefined), the melting point is 118 to 119 °C.

The compound `c1ccc2nc(N3CCN(Cc4n[nH]c5ccccc45)CC3)ccc2c1` yielded a melting point of 187 to 188 °C.

For `O=C(NC1(C(=O)O)CCCC1)OCc1ccccc1`, the melting point fell in the range of 70 to 80 °C.

Compound `COc1ccc(-c2nc3cccnc3n2CC(=O)N2CCCCC2)cc1` had a melting point of 153 to 155 °C.

As for `CN1CCc2c([nH]c3ccc(NS(=O)(=O)c4c(Cl)nc5sccn45)cc23)C1`, the melting point was in the range of 232 to 233 °C.

As to `COc1ccc(C2=C(Cl)C(=O)C2)cc1`, the melting point lay in the range of 96 to 98 °C.

Consider `CCNC(=O)c1cc(-c2ccc(OC)cc2)nn(CC2CCCC2)c1=O`, for which the melting point came to 129 °C.

Compound `Nc1ncnc2c1c(-c1ccc(Oc3ccccc3)cc1)cn2CC(=O)NCCN1CCNCC1` came in with a melting point of 138 to 140 °C.

Compound `CNC(=O)c1cc(C(=O)O)cc(C(=O)NC)n1` gave a melting point below 300 °C.

In turn, `O=C(O)COc1ccc(CCc2ccc(-c3ccc(C(F)(F)F)cc3)cc2)c2c1CCC2` yielded a melting point of 188 to 190 °C.

`NS(=O)(=O)c1cc(C(=O)O)cc(OCc2ccccc2)c1Cc1ccccc1`: the melting point fell in the range of 250 to 251 °C.

As for `CCN1CC(=O)N(c2ccccc2SC)C1=S`, the melting point was 128 to 131 °C.

On to `CC(C)(C)C(NCCSC12CC3CC(CC(C3)C1)C2)C(=O)O` (centres undefined), for which the melting point lay in the range of 220 to 230 °C.

For the compound `CCOc1cc2c(-c3ccnc(Cl)c3)c(CO)c(CO)cc2cc1OC`, the melting point lay in the range of 123 to 126 °C.

`N=c1sc2cc(OC(F)(F)F)ccc2n1CCSc1ncccn1`: the melting point was 110 °C.

For the compound `COCc1c(C(=O)OC(C)C)ncc2[nH]c3c(c12)C(=O)CCC3`, the melting point fell in the range of 243 to 245 °C.

The compound `O=[N+]([O-])c1cc(OCc2ccccc2)ccc1CCO` yielded a melting point of 48 to 52 °C.

For `CN(CCN1C(=O)c2ccccc2S1(=O)=O)C1COc2ccccc2O1` (centres undefined), the melting point amounted to 181 °C.

Turning to `CS(=O)(=O)OCCn1c2ccc(O)cc2c2c3c(c(-c4c(Cl)cccc4Cl)cc21)C(=O)NC3=O`, the melting point lay in the range of 255 to 260 °C.

On to `Cc1cc(C)cc(C(=O)N2CCNC(c3ccc(Cl)c(Cl)c3)C2)c1` (single isomer, unassigned; (+)), for which the melting point was in the range of 97 to 100 °C.

The compound `O=P(Oc1ccccc1O)(Oc1ccccc1O)c1ccccc1` had a melting point of 270 °C.
